Measured values: PubChem BioAssay (NCI)
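The compound was tested at five concentrations on cells cultured in 96-well plates, with a 48-hour exposure period. Here, GI50 denotes the concentration required for 50% inhibition of growth. TGI marks complete inhibition of growth.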

Key:
Assay in all cases: DTP human tumour cell line panel, 48 h
[1] = test system: SR leukemia
[2] = test system: K-562 leukemia
[3] = test system: NCI-H522 lung
[4] = test system: SK-MEL-2 melanoma
[5] = test system: RPMI-8226 leukemia
[6] = test system: TK-10 renal
[7] = test system: HOP-62 NSCLC
[8] = test system: LOX IMVI melanoma
[9] = test system: CCRF-CEM leukemia
[10] = test system: RXF 393 renal
[11] = test system: NCI-H460 lung
[12] = test system: SNB-75 CNS
[13] = test system: A549 NSCLC
[14] = test system: MOLT-4 leukemia
[15] = test system: HT29 colon
[16] = test system: U251 CNS
[17] = test system: UACC-257 melanoma
[18] = test system: T-47D breast
[19] = test system: MDA-MB-231 breast
[20] = test system: HL-60(TB) leukemia
[21] = test system: OVCAR-8 ovarian
[22] = test system: HS 578T breast
[23] = test system: DU-145 prostate
[24] = test system: SF-268 CNS
[25] = test system: NCI/ADR-RES ovarian
[26] = test system: HCC-2998 colon
[27] = test system: EKVX NSCLC
[28] = test system: SK-MEL-5 melanoma
[29] = test system: CAKI-1 renal

SMILES: COC(=O)/C=C1/SC(=Nc2ccc(C(F)(F)F)cc2)N(CCc2c[nH]c3ccc(O)cc23)C1=O
- GI50 [1]: 416 nM
- TGI [1]: 5250 nM
- GI50 [2]: 1550 nM
- TGI [2]: > 100000 nM
- GI50 [3]: 1500 nM
- TGI [3]: 3250 nM
- GI50 [4]: 1520 nM
- TGI [4]: 3220 nM
- GI50 [5]: 722 nM
- TGI [5]: 3260 nM
- GI50 [6]: 2250 nM
- TGI [6]: 5760 nM
- GI50 [7]: 1750 nM
- TGI [7]: 3850 nM
- GI50 [8]: 1250 nM
- TGI [8]: 2680 nM
- GI50 [9]: 569 nM
- TGI [9]: 6690 nM
- GI50 [10]: 1160 nM
- TGI [10]: 2590 nM
- GI50 [11]: 1870 nM
- TGI [11]: 3790 nM
- GI50 [12]: 2270 nM
- TGI [12]: 9680 nM
- GI50 [13]: 3050 nM
- TGI [13]: > 100000 nM
- GI50 [14]: 349 nM
- TGI [14]: 10100 nM
- GI50 [15]: 1750 nM
- TGI [15]: 3430 nM
- GI50 [16]: 1460 nM
- TGI [16]: 3050 nM
- GI50 [17]: 1940 nM
- TGI [17]: 5170 nM
- GI50 [18]: 2070 nM
- TGI [18]: 9640 nM
- GI50 [19]: 1910 nM
- TGI [19]: 4670 nM
- GI50 [20]: 1570 nM
- TGI [20]: 6650 nM
- GI50 [21]: 1620 nM
- TGI [21]: 6040 nM
- GI50 [22]: 1870 nM
- TGI [22]: 5780 nM
- GI50 [23]: 2210 nM
- TGI [23]: > 100000 nM
- GI50 [24]: 1690 nM
- TGI [24]: 5360 nM
- GI50 [25]: 2160 nM
- TGI [25]: 8960 nM
- GI50 [26]: 1940 nM
- TGI [26]: 3560 nM
- GI50 [27]: 3200 nM
- TGI [27]: > 100000 nM
- GI50 [28]: 1860 nM
- TGI [28]: 3990 nM
- GI50 [29]: 2710 nM
- TGI [29]: > 100000 nM
